{"source": "patent US11129801B2", "about": "(SigmaThera SAS, priority 2016, dated 2021)", "key": {"[1]": {"system": "hippocampal lipid peroxidation", "experiment": "Hippocampal lipid peroxidation (LPO) measurement, Aβ25-35 mouse model", "type": "in vivo", "conditions": "for hippocampal LPO levels: 1 mg/kg", "method": "(§1) For each of Experiments 1-4, on day 7, all animals were tested for the spontaneous alternation performance in the Y-maze test, an index of spatial working memory. On day 8 and 9, the contextual long-term memory of the animals was assessed using the step-through type passive avoidance procedure. On day 9, immediately after the retention session, animals were sacrificed by decapitation and the hippocampus and cortex dissected out. Lipid peroxidation was analyzed in the hippocampus, whereas neuroinflammation, apoptosis, amyloid burden and hyperphosphorylation of tau protein were analyzed in cortex.\nSacrifice: At the end of the passive avoidance retention session, on day 9, the animals were sacrificed by decapitation. The hippocampi and frontal cortex were dissected out and kept at −80° C. until the measurement of lipid peroxidation and other markers.\nLipid peroxidation measurement: At day 24, 6 hippocampi from each group were used. After thawing, homogenates were homogenized in cold methanol ( 1/10 w/v), centrifuged at 1,000 g during 5 min and the supernatant placed in Eppendorf tube. The reaction volume of each homogenate was added to FeSO4 1 mM, H2SO4 0.25 M, xylenol orange 1 mM and incubated for 30 min at room temperature. After reading the absorbance at 580 nm (A5801), 10 μl of cumene hydroperoxyde (CHP) 1 mM was added to the sample and incubated for 30 min at room temperature, to determine the maximal oxidation level. The absorbance was measured at 580 nm (A5802). The level of lipid peroxidation was determined as CHP equivalents according to: CHPE=A5801/A5802×[CHP (nmol)] and expressed as CHP equivalents per wet weight of tissue and as percentage of control group data (Veh-treated Sc.Aβ-administered mice)."}, "[2]": {"system": "Aβ25-35 mouse model of Alzheimer's disease", "experiment": "Aβ25-35 mouse model, overall neuroprotection (summary statements)", "type": "in vivo", "method": "The compound efficacy was evaluated 7 days after the peptide administration on the attenuation of the Aβ25-35-induced learning deficits (spatial working memory using the spontaneous alternation in the Y-maze test, and contextual long-term memory using the passive avoidance test).\nThe mice were tested 7 days post injection or at the indicated time points.\n(§2) In Experiment 2, twelve mice per experimental group were administered Sc.Aβ or Aβ25-35-amyloid peptide on day 0 by i.c.v. injection. […] Animals were tested at day 7 and later.\nThe synergy/additivity/antagonism was evaluated by calculating the combination index. […] Animals were then tested at day 7 and later.\nAnimals were tested at day 7 and later.\nas §1"}, "[3]": {"system": "Tau protein phosphorylated on Serine 199 (pTauS199)", "experiment": "ELISA of cortical pTauS199, Aβ25-35 mouse model", "type": "in vivo", "conditions": "Experiment 2, post-treatment", "method": "as §2, §1\n(§3) Enzyme-linked immunosorbant assay (ELISA) assays: Contents in GFAP, Caspase 12, Amyloid-beta 1-40, Amyloid-beta 1-42, Total Tau, and pTau on Ser199 were analyzed by using commercial ELISA assay kit. • GFAP: Supplier: USCNK #Ref: SEA068Mu • Total Tau: Supplier: Novex #Ref: KMB7011 • pTau (S199): Supplier: Novex #Ref: KMB7041 • Amyloid beta 1-40: Supplier: Novex #Ref: KMB3481 • Amyloid beta 1-42: Supplier: Novex #Ref: KMB3441 • Caspase-12: Supplier: LSBio #Ref: LS-F11023 • BAX: Supplier: Euromedex#Ref: SEB343Mu • BCL2: Supplier: Euromedex #Ref: SEA778Mu […]"}, "[4]": {"system": "gerbil model of global cerebral ischemia", "conditions": "cited from earlier work"}, "GFAP": {"system": "GFAP", "experiment": "ELISA of cortical GFAP, Aβ25-35 mouse model", "type": "in vivo", "conditions": "Experiment 2, post-treatment, 1 mg/kg", "method": "as §2, §1, §3"}, "[5]": {"system": "sigma-1 receptor / BiP complex", "experiment": "Dissociation of BiP from sigma-1 receptor in CHO cells", "type": "cell-based", "conditions": "1 μM and 10 μM, 30 min", "method": "CHO cells were grown in a 6-well plates and treated with the compounds in culture medium at 37° C. for 30 min at 1 μM and 10 μM final concentration. The reaction was stopped by medium removal and adding 3 mL PBS at 37° C. CHO cells were harvested and suspended in 50 mM HEPES (pH7.4) followed by cross-linking with 50 μg/ml of dithio (bis) succinimidyl propionate (Thermo Fisher Scientific, Waltham, Mass.) for 30 min at 4° C. The reaction was stopped by adding Tris-HCl (pH 8.8, final 50 mM). Fifteen minutes after incubation on ice, cells were lysed with RIPA buffer [50 mM Tris (pH7.4), 150 mM NaCl, 1% Triton X-100, 0.3% sodium deoxycholate, 0.1% SDS, protease inhibitor cocktail (Roche Complete)]. After centrifugation at 12,000 g, 1 min, the supernatant was incubated overnight at 4° C. with Sig-1R antibody (Abcam). The cell lysate was incubated with Sepharose protein-A (Invitrogen) for 90 min. After centrifugation at 12,000 g, 1 min, the supernatant was discarded and the pellet was washed in 0.5 mL RIPA buffer. After a second centrifugation at 12,000 g, 20 min, the supernatant was discarded and the pellet was washed in 0.5 mL 2× Sample buffer/bMCE buffer. Following a third centrifugation at 12,000 g, 1 min, the supernatant was analysed by ELISA assay, according to the manufacturer's protocol (USCNK #SEC343Mu)."}}, "note": "Where “and” joins values, the source holds several entries; their conditions need not be identical. Equal values may be shown once."}
{"smiles": "CCC(C/C=C/c1ccccc1)(c1ccccc1)N(C)CC1CC1", "note": "(single isomer, unassigned; (+)) [igmesine, (+)-(E)-N-(cyclopropylmethyl)-N-methyl-3,6-diphenylhex-5-en-3-amine]", "values": [{"measurement": "hippocampal LPO levels", "setting": "[1]; Experiment 1, pre-treatment", "value": "fully normalized"}, {"measurement": "hippocampal LPO levels", "setting": "[1]; Experiment 2, post-treatment", "value": "fully normalized"}, {"measurement": "synergy on hippocampal LPO with donepezil", "setting": "[1]; Experiment 3, igmesine 0.1 mg/kg + donepezil […]", "value": "did synergize"}, {"measurement": "synergy on hippocampal LPO with memantine", "setting": "[1]; Experiment 3, igmesine 0.1 mg/kg + memantine", "value": "synergy was not present"}, {"measurement": "dose in combination versus dose active on depression (fold lower)", "setting": "[2]; combined with donepezil, ibuprofen, selegiline or atorvastatin", "value": 300, "unit": "fold"}, {"measurement": "lowest dose with effect, preventive treatment", "setting": "[2]; given 20 min before Aβ25-35", "value": 0.3, "unit": "mg/kg"}, {"measurement": "lowest dose with effect, curative treatment", "setting": "[2]; starting 1 day after induction of the toxicity", "value": 1, "unit": "mg/kg"}, {"measurement": "synergistic effect in combination", "setting": "[2]; with donepezil, ibuprofen, selegiline or atorvastatin, not with memantine", "value": "clear synergistic effect"}, {"measurement": "elevation of cortical pTauS199", "setting": "[3]", "value": "fully normalized"}, {"measurement": "effective doses, neuroprotective effects", "setting": "[4]", "value": "50 mg/kg and 75 mg/kg and 100 mg/kg"}, {"measurement": "cortical GFAP elevation", "setting": "GFAP", "value": "fully normalized"}, {"measurement": "dissociation of BiP from sigma-1 receptor", "setting": "[5]", "value": "produced the dissociation of BiP from sigma-1 receptor in a dose-dependent manner"}]}
